In brackets after ≈: the same amount, converted by molar mass. Marks after values point to notes of the source that are not given here.
How the values were obtained:
[1] = Oral bioavailability of ibuprofen crushed tablets in control and vagal-suppressed (Pain Model) rats; assay type: in vivo, Sprague-Dawley rats; settings: Pain Model (vagal-suppressed, propantheline) rats, 20 mg/kg oral
Text: Delayed absorption caused by vagal suppression that has previously been reported in the literature (e.g., Jamali & Axelson, 1997) was used to test the absorption rates of new meloxicam formulations.
The animal models are adult male Sprague-Dawley rats with body weight of 250-300 g, and which were cared for in accordance with the principles and guidelines of the Canadian Council of Animal Care. All rats were catheterized in the right jugular vein for sample collection.
An animal model having suppressed vagal properties were produced by administering (intraperitoneal injection) to the rats two 20 mg/kg doses of propantheline (test, n=6), an anticholinergic agent with known vagal suppressive properties, the first dose at 2 hours prior to administration of an NSAID, and the second at 1 hour prior.
The tablets were crushed gently and small pieces were administered into the stomach via a plastic tube followed by 0.5 mL tap water. Animals were fasted after the first dose of propantheline until 4 hours post-meloxicam dose. They had free access to water.

[2] = 200 mg and 600 mg doses, dental surgery; cited from earlier work
[3] = Solubility of meloxicam in simulated gastric fluid pH 1.2; assay type: physicochemical; settings: for solubility at 72 h: simulated gastric fluid, pH 1.2, simulated gastric fluid, thermodynamic from solid
Method: Excess of different compositions and pure meloxicam powder were transferred into test tubes.
10 ml of USP simulated gastric fluid, pH 1.2 (SGF) was added.
Samples were shaken for 72 h at room temperature.
Filtered solutions were analyzed for meloxicam.

[4] = pH 2-4; cited from earlier work

Structure (SMILES)	AUC (0-8) [1] [μg/h/mL^−1]	Cmax [1]	Tmax [1] [min]	delay in the mean time to peak concentration caused by surgery [2]	solubility in simulated gastric fluid when loaded on Neusilin® and mixed with Gelucire® 44/14 ([3]; pH 1.2, FIG. 7)	solubility at 72 h ([3]; pH 1.2, combination of Gelucire® and Neusilin®) [µg/mL]	solubility at 72 h ([3]; pH 1.2, meloxicam alone) [µg/mL]	solubility at 72 h ([3]; pH 1.2, with Gelucire® alone) [µg/mL]	solubility at 72 h ([3]; pH 1.2, with the metal silicate alone) [µg/mL]	minimum solubility in buffered aqueous systems [4]
CC(C)Cc1ccc(C(C)C(=O)O)cc1 (racemic) [ibuprofen]	81.8	13.8* μg/mL	45	two						
Cc1cnc(NC(=O)C2=C(O)c3ccccc3S(=O)(=O)N2C)s1 [meloxicam]					substantially increased	11500	7 (≈ 19.9 µM)	10 (≈ 28.5 µM)	23 to 41 (≈ 65.5 to 117 µM)	less than 0.5 µg/ml

From patent US20080255104A1, “Nsaid Compositions” (EQUITECH CORPORATION, priority 2004, published 2008)
